In a melting point compilation (Tetko et al.; mined from patent text by program, amines drawn as free bases though some values may be those of a salt):

In the case of `CCCC1=NN(c2ccc([N+](=O)[O-])cc2)C(=O)C1=CNc1ccccc1CC`, the melting point is reported as 211 °C. In the case of `O=C1C(Cc2ccccc2)C(C(F)(F)F)=Nc2ccccc2N1Cc1ccccc1` (stereo not given), the melting point is reported as 150 to 151 °C. With `CC(C)(C)OC(=O)N1CC(O)CN1C(=O)OC(C)(C)C` the melting point was 100 to 102 °C. Work on `O=C1CCC(N2C(=O)c3cccc(NCC(=O)N4CCC4)c3C2=O)C(=O)N1` (stereo not given) yielded a melting point of 272 to 274 °C. Compound `CC12C=CCC1C1CCC3CC(=O)CCC3C1CC2` (stereo not given) has a melting point of 51 to 54 °C. `CCOC(=O)NC[C@H]1CN(c2ccc3c(c2)CCCc2cnoc2-3)C(=O)O1` gave a melting point of 181 to 183 °C. In the case of `CCOC(=O)C(CCCCCc1ccc(Cl)cc1)NS(C)(=O)=O` (stereo not given), the melting point is reported as 60 to 62 °C. In the case of `CS(=O)(=O)N1CCC(Nc2nc(Nc3ccc(F)c(CN4CCOCC4)c3)nc(OCC(F)(F)F)n2)CC1`, the melting point is reported as 96 to 98 °C. Work on `C=CCc1c(-c2cc(=O)c3c(O)cc(OCC(=O)OCC)cc3o2)ccc(OC)c1O` yielded a melting point of 155 °C. For `CN(C)C(=O)Nc1ccc(Oc2ccc3ccccc3c2)c(C(F)(F)F)c1`, the melting point was 210 to 211 °C. Work on `CC(O)c1cc2c(=O)n(NS(C)(=O)=O)c(=O)[nH]c2cc1C(F)(F)F` (stereo not given) yielded a melting point of 263 to 268 °C. With `COc1ccc(OC(C)=O)c2ccccc12` the melting point was 51 to 53 °C. `O=C1/C(=C/c2ccccc2)N2CCC1CC2` showed a melting point of 130 to 132 °C. Work on `O=C(O)CCCCCNC(=NC(=O)OCc1ccccc1)NC(=O)OCc1ccccc1` yielded a melting point of 93 °C. `COc1cc2c(Nc3ccc4c(c3)NCC4)c(C#N)cnc2cc1OCCCc1ccncc1` showed a melting point of 100 to 105 °C. With `CC1CCn2nc(S(=O)(=O)Nc3c(Cl)cccc3Cl)nc2N1` (stereo not given) the melting point was 230 to 235 °C. With `CCN1c2ncc(CCc3cccc(C)c3)cc2C(=O)N(C)c2cccnc21` the melting point was 103 to 104 °C. For `C=C(C)Cn1cnc2c(N)nc3ccccc3c21`, the melting point was 290 to 294 °C. In the case of `CC(=O)OC1CCCC(n2c(Br)nc3cc(Cl)c(Cl)cc32)C1OC(C)=O` (stereo not given), the melting point is reported as 71 to 79 °C. In the case of `CCCCCCCC(=O)NCCCCCOS(C)(=O)=O`, the melting point is reported as 67 to 68 °C. `O=S(=O)(NCCCCOc1ccc(-n2ccnc2)cc1)c1ccccc1` showed a melting point of 110 to 111 °C. Compound `O=C1NC(=O)C(Cc2ccc(OC[C@@H]3CCCN3c3ccc4ccccc4n3)cc2)S1` (stereo not given in full) has a melting point of 81 to 83 °C. `CC(C)=C1C(=O)N(c2ccc(N)cc2)C(=O)/C1=C(\C)c1cc(C)oc1C` showed a melting point of 209 to 211 °C. In the case of `CCc1ncnc(O)c1[N+](=O)[O-]`, the melting point is reported as 181 to 183 °C. For `NC(=O)c1ccccc1NC(=O)c1ccc(-n2nc(C(F)(F)F)cc2C(F)(F)F)cc1`, the melting point was 195 to 196 °C. `CCc1nc2nccc(C)c2[nH]1` gave a melting point of 117 to 119 °C. `Cc1c(/C=C/C(=O)N(C)C)ncn1C(c1ccccc1)(c1ccccc1)c1ccccc1` gave a melting point of 195 to 197 °C. In the case of `COc1ccc2nccc(CCC[C@@H]3CCN(CCCc4cccc(F)c4)C[C@@H]3C(=O)O)c2c1`, the melting point is reported as 206 °C. `OC(Cn1cnnc1)(Cn1cncn1)Cn1cncn1` gave a melting point of 220 °C. `COC(=O)C(C)(Cc1ccc(OCCc2nc(-c3ccccc3)oc2C)cc1)C(=O)OC` showed a melting point of 75.1 to 76 °C. Compound `COc1cccc2c(=O)c(-c3cccc(C(F)(F)F)c3Cl)nn(Cc3ccc(F)cc3F)c12` has a melting point of 141 to 142 °C. In the case of `COc1cc(C(F)(F)F)cc(OC)n1`, the melting point is reported as 26 to 27 °C. Compound `C[C@@H](CO)NS(=O)(=O)c1ccccc1[N+](=O)[O-]` has a melting point of 82 to 83 °C. Compound `COc1ccc2cc([C@H](C)C(=O)NOCC(=O)NCCO[N+](=O)[O-])ccc2c1` has a melting point of 40 to 44 °C. Work on `COc1cc2c(cc1OC)CN(c1cc(Cl)ncn1)CC2` yielded a melting point of 88 to 89 °C. Compound `COC1=CC=CC(OCCCN2CCN(c3n[nH]c4ccccc34)CC2)(C(C)=O)C1` (stereo not given) has a melting point of 155 to 157 °C. `CC(C)N(CCOC1CCCC2Oc3ccccc3OC12)C(C)C` (stereo not given) showed a melting point of 63.4 °C. Compound `Cn1c2cccc(Br)c2c2c(CC(=O)N3CCCC3)nn(-c3ccccc3)c(=O)c21` has a melting point of 209 to 210 °C. Work on `NS(=O)(=O)c1cc2[nH]c(=O)c(=O)[nH]c2cc1[N+](=O)[O-]` yielded a melting point of over 330 °C. Work on `CC(=O)c1ccc2c3c1ccn3C(=O)CNC2` yielded a melting point of 285 to 287 °C.
